Results as given in US12679848B2, “Plasma kallikrein inhibitors” (Merck Sharp & Dohme LLC, priority 2020, dated 2026).
pIC50: −log10 of the molar value.

Key:
[1] = target: T1, Human plasma kallikrein (Homo sapiens, UniProt P03952); experiment: Plasma Kallikrein Assay; format: biochemical; details: purified Human plasma kallikrein 0.5 nM, substrate Acetyl-K-P-R-AFC, HEPES pH 7.4; read-out: PKal IC50
T1 construct: yields a heavy chain (371 amino acids) and a light chain (248 amino acids); The active site of plasma kallikrein is contained in the light chain; purchased Enzyme Research Laboratories
T1 sequence (P03952 391-638 limits assumed): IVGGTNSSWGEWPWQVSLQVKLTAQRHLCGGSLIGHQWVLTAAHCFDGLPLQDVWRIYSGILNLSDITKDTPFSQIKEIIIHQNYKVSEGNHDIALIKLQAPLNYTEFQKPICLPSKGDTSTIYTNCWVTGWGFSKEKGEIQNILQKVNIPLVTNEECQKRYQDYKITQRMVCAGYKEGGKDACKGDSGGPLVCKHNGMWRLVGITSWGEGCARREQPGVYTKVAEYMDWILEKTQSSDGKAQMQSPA
T1 sequence (P03952 20-390 partner limits assumed): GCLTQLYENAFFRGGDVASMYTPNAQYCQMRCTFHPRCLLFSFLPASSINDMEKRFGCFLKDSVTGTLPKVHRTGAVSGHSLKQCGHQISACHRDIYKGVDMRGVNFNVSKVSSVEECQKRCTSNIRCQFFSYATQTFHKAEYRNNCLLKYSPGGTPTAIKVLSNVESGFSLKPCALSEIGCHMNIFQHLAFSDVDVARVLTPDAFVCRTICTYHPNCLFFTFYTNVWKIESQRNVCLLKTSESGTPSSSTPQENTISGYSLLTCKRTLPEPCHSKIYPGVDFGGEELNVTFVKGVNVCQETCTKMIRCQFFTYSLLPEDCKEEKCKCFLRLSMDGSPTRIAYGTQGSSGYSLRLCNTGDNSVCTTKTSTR
Protocol: (§1) The effectiveness of a compound of the present invention as an inhibitor of plasma kallikrein can be determined using a relevant purified serine protease, and an appropriate synthetic substrate. The rate of hydrolysis of the chromogenic or fluorogenic substrate by the relevant serine protease was measured both in the absence and presence of compounds of the present invention. Assays were conducted at rt or at 37° C. […] A decrease in the rate of fluorescence change in the presence of inhibitor is indicative of enzyme inhibition. Such methods are known to one skilled in the art. The results of this assay are expressed as the half-maximal inhibitory concentrations (IC50), or the inhibitory constant, Ki.
Plasma kallikrein determinations were made in 50 mM HEPES buffer at pH 7.4 containing 150 mM NaCl, 5 mM CaCl2), and 0.1% PEG 8000 (polyethylene glycol; Fisher Scientific). Determinations were made using purified Human plasma kallikrein at a final concentration of 0.5 nM (Enzyme Research Laboratories) and the synthetic substrate, Acetyl-K—P—R-AFC (Sigma #C6608) at a concentration of […].
Times required to achieve equilibration between enzyme and inhibitor were determined in control experiments. […] IC50 was determined by inflection point from a four parameter logistic curve fit. Ki was calculated using the Cheng Prusoff equation, Ki=IC50/[…](1+([S]/Km)).

[2] = target: human factor XIa (Homo sapiens, UniProt P03951); experiment: Factor XIa Assay; format: biochemical; details: human factor XIa 0.04 nM, substrate GPR-AFC, 30 min pre-incubation, 25° C., pH 7.4; read-out: FXIa IC50
human factor XIa, sequence (P03951 388-625 limits assumed): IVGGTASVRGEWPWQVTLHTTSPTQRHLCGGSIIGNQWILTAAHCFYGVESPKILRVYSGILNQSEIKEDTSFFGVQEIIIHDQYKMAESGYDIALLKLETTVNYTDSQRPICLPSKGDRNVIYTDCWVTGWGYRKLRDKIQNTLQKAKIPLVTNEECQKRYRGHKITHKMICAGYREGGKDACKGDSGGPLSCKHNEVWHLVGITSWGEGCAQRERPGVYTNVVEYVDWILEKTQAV
human factor XIa, sequence (P03951 19-387 partner limits assumed): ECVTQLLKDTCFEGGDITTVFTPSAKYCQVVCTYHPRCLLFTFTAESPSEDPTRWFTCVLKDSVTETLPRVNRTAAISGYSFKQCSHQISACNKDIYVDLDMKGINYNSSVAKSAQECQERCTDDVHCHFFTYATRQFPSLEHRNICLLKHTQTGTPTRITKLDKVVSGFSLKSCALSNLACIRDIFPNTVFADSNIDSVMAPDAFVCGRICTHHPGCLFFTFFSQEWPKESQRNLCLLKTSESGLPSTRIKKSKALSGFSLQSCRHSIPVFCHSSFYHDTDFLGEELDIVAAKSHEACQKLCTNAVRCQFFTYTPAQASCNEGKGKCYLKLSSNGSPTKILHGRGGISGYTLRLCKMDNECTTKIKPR
Protocol: as §1, with “Coagulation factor XIa” for “plasma kallikrein”
Compounds were pre-incubated for 30 min at 25° C. with human (0.04 nM) factor XIa in 50 mM HEPES buffer with 150 mM sodium chloride, 5 mM calcium chloride, 0.1% PEG 8000, pH 7.4. factor XIa enzymatic activity was determined by addition of the substrate glycine-proline-arginine-7-amido-4-trifluoromethylcoumarin (GPR-AFC) and measurement of the fluorescence at 400/505 nm after a 60 min incubation at 25° C. The % inhibition for each data point was calculated from the data and analyzed using the log (inhibitor) vs. response four parameters equation to determine the half-maximal inhibitory concentrations (IC50). The IC50 were converted to equilibrium inhibitory constants (Ki) using the Cheng-Prusoff equation.

Structure (SMILES) | pIC50 [1] | pIC50 [2]
Nc1c(C(=O)N2CCC[C@@]3(C2)OC(=O)Nc2ccc(Cl)c(F)c23)cnn1C12CC(C1)C2 [Example 19, (R)-1'-(5-Amino-1-(bicyclo[1.1.1]pentan-1-y1)-1H-pyrazole-4-carbonyl)-6-chloro-5-fluorospiro[benzo[d][1,3]oxazine-4,3'-piperidin]-2(1H)-one] | 7.54 | 5.53
Nc1c(C(=O)N2CCC[C@@]3(C2)OC(=O)Nc2ccc(Cl)c(F)c23)cnn1CCOCC(F)(F)F [Example 20, (R)-1'-(5-Amino-1-(2-(2,2,2-trifluoroethoxy)ethyl)-1H-pyrazole-4-carbonyl)-6-chloro-5-fluorospiro[benzo[d][1,3]oxazine-4,3'-piperidin]-2(1H)-one] | 8.23 | 6.05
CC(C)OCCn1ncc(C(=O)N2CCC[C@@]3(C2)OC(=O)Nc2ccc(Cl)c(F)c23)c1N [Example 21, (R)-1'-(5-Amino-1-(2-isopropoxyethyl)-1H-pyrazole-4-carbonyl)-6-chloro-5-fluorospiro[benzo[d][1,3]oxazine-4,3'-piperidin]-2(1H)-one] | 7.90 | 5.96
Nc1c(C(=O)N2CCC[C@@]3(C2)OC(=O)Nc2ccc(Cl)c(F)c23)cnn1C1CCCC1 [Example 22, (R)-1'-(5-Amino-1-cyclopenty1-1H-pyrazole-4-carbonyl)-6-chloro-5-fluorospiro[benzo[d][1,3]oxazine-4,3'-piperidin]-2(1H)-one] | 7.82 | 5.95
CC(C)(C)n1ncc(C(=O)N2CCC[C@@]3(C2)OC(=O)Nc2ccc(Cl)c(F)c23)c1N [Example 23, (R)-1'-(5-Amino-1-(tert-butyl)-1H-pyrazole-4-carbonyl)-6-chloro-5-fluorospiro[benzo[d][1,3]oxazine-4,3'-piperidin]-2(1H)-one] | 7.87 | 5.65
COCCn1ncc(C(=O)N2CCC[C@@]3(C2)OC(=O)Nc2ccc(Cl)c(F)c23)c1N [Example 24, (R)-1'-(5-Amino-1-(2-methoxyethyl)-1H-pyrazole-4-carbonyl)-6-chloro-5-fluorospiro[benzo[d][1,3]oxazine-4,3'-piperidin]-2(1H)-one] | 7.96 | 6.37
CCn1ncc(C(=O)N2CCC[C@@]3(C2)OC(=O)Nc2ccc(Cl)c(F)c23)c1N [Example 25, (R)-1'-(5-Amino-1-ethy1-1H-pyrazole-4-carbonyl)-6-chloro-5-fluorospiro[benzo[d][1,3]oxazine-4,3'-piperidin]-2(1H)-one] | 7.61 | 5.70
Nc1c(C(=O)N2CCC[C@@]3(C2)OC(=O)Nc2ccc(Cl)c(F)c23)cnn1CC1(C(F)(F)F)CC1 [Example 26, (R)-1'-(5-Amino-1-((1-(trifluoromethyl)cyclopropyl)methyl)-1H-pyrazole-4-carbonyl)-6-chloro-5-fluorospiro[benzo[d][1,3]oxazine-4,3'-piperidin]-2(1H)-one] | 8.08 | 6.45
Nc1c(C(=O)N2CCC[C@@]3(C2)OC(=O)Nc2ccc(Cl)c(F)c23)cnn1CCC(F)(F)F [Example 27, (R)-1'-(5-Amino-1-(3,3,3-trifluoropropyl)-1H-pyrazole-4-carbonyl)-6-chloro-5-fluorospiro[benzo[d][1,3]oxazine-4,3'-piperidin]-2(1H)-one] | 7.73 | 6.16
Nc1c(C(=O)N2CCC[C@@]3(C2)OC(=O)Nc2ccc(Cl)c(F)c23)cnn1C1(c2ccc(F)cc2)CC1 [Example 28, (R)-1'-(5-Amino-1-(1-(4-fluorophenyl)cyclopropyl)-1H-pyrazole-4-carbonyl)-6-chloro-5-fluorospiro[benzo[d][1,3]oxazine-4,3'-piperidin]-2(1H)-one] | 8.54 | 6.95
Nc1c(C(=O)N2CCC[C@@]3(C2)OC(=O)Nc2ccc(Cl)c(F)c23)cnn1CC1(F)CC1 [Example 29, (R)-1'-(5-Amino-1-((1-fluorocyclopropyl)methyl)-1H-pyrazole-4-carbonyl)-6-chloro-5-fluorospiro[benzo[d][1,3]oxazine-4,3'-piperidin]-2(1H)-one] | 8.10 | 6.15
Cn1c(-c2ccccc2)nnc1-n1ncc(C(=O)N2CCC[C@@]3(C2)OC(=O)Nc2ccc(Cl)c(F)c23)c1N [Example 30, (R)-1'-(5-Amino-1-(4-methyl-5-phenyl-4H-1,2,4-triazol-3-y1)-1H-pyrazole-4-carbonyl)-6-chloro-5-fluorospiro[benzo[d][1,3]oxazine-4,3'-piperidin]-2(1H)-one] | 7.74 | 5.55
Nc1c(C(=O)N2CCC[C@@]3(C2)OC(=O)Nc2ccc(Cl)c(F)c23)cnn1Cc1ccncc1 [Example 32, (R)-1'-(5-Amino-1-(pyridin-4-ylmethyl)-1H-pyrazole-4-carbonyl)-6-chloro-5-fluorospiro[benzo[d][1,3]oxazine-4,3'-piperidin]-2(1H)-one] | 8.77 | 6.57
Nc1c(C(=O)N2CCC[C@@]3(C2)OC(=O)Nc2ccc(Cl)c(F)c23)cnn1Cc1ccc(F)c(F)c1 [Example 33, (R)-1'-(5-Amino-1-(3,4-difluorobenzy1)-1H-pyrazole-4-carbonyl)-6-chloro-5-fluorospiro[benzo[d][1,3]oxazine-4,3'-piperidin]-2(1H)-one] | 9.00 | 6.36
CC(C)n1ncc(C(=O)N2CCC[C@@]3(C2)OC(=O)Nc2ccc(Cl)c(F)c23)c1N [Example 34, (R)-1'-(5-Amino-1-isopropyl-1H-pyrazole-4-carbonyl)-6-chloro-5-fluorospiro[benzo[d][1,3]oxazine-4,3'-piperidin]-2(1H)-one] | 8.05 | 5.92
Nc1c(C(=O)N2CCC[C@@]3(C2)OC(=O)Nc2ccc(Cl)c(F)c23)cnn1C1CCCCC1 [Example 35, (R)-1'-(5-Amino-1-cyclohexyl-1H-pyrazole-4-carbonyl)-6-chloro-5-fluorospiro[benzo[d][1,3]oxazine-4,3'-piperidin]-2(1H)-one] | 7.80 | 5.97
Nc1c(C(=O)N2CCC[C@@]3(C2)OC(=O)Nc2ccc(Cl)c(F)c23)cnn1CC1CCCCC1 [Example 36, (R)-1'-(5-Amino-1-(cyclohexylmethyl)-1H-pyrazole-4-carbonyl)-6-chloro-5-fluorospiro[benzo[d][1,3]oxazine-4,3'-piperidin]-2(1H)-one] | 8.70 | 6.85
Nc1c(C(=O)N2CCC[C@@]3(C2)OC(=O)Nc2ccc(Cl)c(F)c23)cnn1CCOc1ccc(Cl)cc1 [Example 37, (R)-1'-(5-Amino-1-(2-(4-chlorophenoxy)ethyl)-1H-pyrazole-4-carbonyl)-6-chloro-5-fluorospiro[benzo[d][1,3]oxazine-4,3'-piperidin]-2(1H)-one] | 7.98 | 5.34
Nc1c(C(=O)N2CCC[C@@]3(C2)OC(=O)Nc2ccc(Cl)c(F)c23)cnn1C1Cc2ccccc2C1 [Example 38, (R)-1'-(5-Amino-1-(2,3-dihydro-1H-inden-2-yl)-1H-pyrazole-4-carbonyl)-6-chloro-5-fluorospiro[benzo[d][1,3]oxazine-4,3'-piperidin]-2(1H)-one] | 8.62 | 6.35
COc1cccc(Cn2ncc(C(=O)N3CCC[C@@]4(C3)OC(=O)Nc3ccc(Cl)c(F)c34)c2N)c1 [Example 39, (R)-1'-(5-Amino-1-(3-methoxybenzyl)-1H-pyrazole-4-carbonyl)-6-chloro-5-fluorospiro[benzo[d][1,3]oxazine-4,3'-piperidin]-2(1H)-one] | 8.92 | 6.53
COc1ccccc1Cn1ncc(C(=O)N2CCC[C@@]3(C2)OC(=O)Nc2ccc(Cl)c(F)c23)c1N [Example 40, (R)-1'-(5-Amino-1-(2-methoxybenzyl)-1H-pyrazole-4-carbonyl)-6-chloro-5-fluorospiro[benzo[d][1,3]oxazine-4,3'-piperidin]-2(1H)-one] | 8.64 | 6.60
CN(C)c1ccccc1Cn1ncc(C(=O)N2CCC[C@@]3(C2)OC(=O)Nc2ccc(Cl)c(F)c23)c1N [Example 41, (R)-1'-(5-Amino-1-(2-(dimethylamino)benzyl)-1H-pyrazole-4-carbonyl)-6-chloro-5-fluorospiro[benzo[d][1,3]oxazine-4,3'-piperidin]-2(1H)-one] | 7.94 | 6.13
